# Measurements reported in patent US12421193B2, “GPR52 modulators and methods of use” (Neurocrine Biosciences, Inc., priority 2020, dated 2025).
# Target: T1, recombinant human GPR52 (Homo sapiens, UniProt Q9Y2T5)
# T1 construct: expressed in transfected cells
# Assay: TR-FRET cAMP assay (LANCE Ultra cAMP Kit), GPR52 activity
# Type: cell-based
# Settings: Flp-In-CHO cells stably expressing recombinant human GPR52; cAMP production, normalized to the positive control
# Protocol: TR-FRET cAMP assays were performed using commercially available assay kits (LANCE™ Ultra cAMP Kit). Controls and compounds were solubilized in DMSO using ½ log dilution to generate duplicate 10-point dose response curves in 384-well polypropylene compound plates. Sixty nanoliters of the diluted compounds were transferred into 384-well NBS assay plates and further diluted to 1× with the addition of 2000 cells per well. Flp-In™—CHO cells that stably express recombinant human GPR52.
# Cells were harvested with cell stripper and resuspended in Stimulation Buffer (5 mM HEPES, 0.1% bovine serum albumin (BSA), 0.5 mM IBMX, pH 7.4). After thirty minutes incubation at room temperature, detection reagents were added to each well. Plates were then incubated for 30 minutes at room temperature. The LANCE™ Ultra cAMP assay uses time-resolved fluorescence resonance energy transfer (TR-FRET) to detect cAMVP production; this signal was quantified using a Pherastar multi-mode plate reader.
# Dose-response curves were generated from the fluorescence counts normalized to the positive control. E EC50 values were obtained using a nonlinear regression curve-fitting program.
# T1 sequence (Q9Y2T5 whole entry): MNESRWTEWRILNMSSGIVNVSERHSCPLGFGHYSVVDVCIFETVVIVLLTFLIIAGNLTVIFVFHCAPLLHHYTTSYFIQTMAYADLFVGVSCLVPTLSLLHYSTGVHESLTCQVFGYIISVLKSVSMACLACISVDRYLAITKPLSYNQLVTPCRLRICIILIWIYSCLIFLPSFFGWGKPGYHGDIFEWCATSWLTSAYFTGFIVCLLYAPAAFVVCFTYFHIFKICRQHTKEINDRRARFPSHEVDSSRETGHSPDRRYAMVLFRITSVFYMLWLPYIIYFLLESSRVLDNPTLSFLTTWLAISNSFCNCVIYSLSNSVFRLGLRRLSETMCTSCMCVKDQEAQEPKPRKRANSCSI
row,Structure (SMILES),EC50
1,"COc1ccc(OCc2ccnc(-c3ccc(C(N)=O)c(C)c3)c2)c2ccccc12 [Example 19, 4-(4-{[(4-methoxynaphthalen-1-yl)oxy]methyl}pyridin-2-yl)-2-methylbenzamide]",101 to 1000 nM
2,"Cc1cc(-c2cc(COc3cc(Cl)cc(Cl)c3)ccn2)ccc1C(N)=O [Example 20, 4-[4-(3,5-dichlorophenoxymethyl)pyridin-2-yl]-2-methylbenzamide]",< 25 nM
3,"COc1ccc2ccc(OCc3ccnc(-c4ccc(C(N)=O)c(C)c4)c3)cc2c1 [Example 21, 4-(4-{[(7-methoxynaphthalen-2-yl)oxy]methyl}pyridin-2-yl)-2-methylbenzamide]",25 to 100 nM
4,"COc1ccc(OCc2ccnc(-c3ccc(C(N)=O)c(C)c3)c2)c(Cl)c1 [Example 22, 4-[4-(2-chloro-4-methoxyphenoxymethyl)pyridin-2-yl]-2-methylbenzamide]",< 25 nM
5,"CCCc1ccccc1OCc1ccnc(-c2ccc(C(N)=O)c(C)c2)c1 [Example 23, 4-[4-(2-propylphenoxymethyl)pyridin-2-yl]-2-methyl benzamide]",< 25 nM
6,"COc1cc(Cl)cc(OCc2ccnc(-c3ccc(C(N)=O)c(C)c3)c2)c1 [Example 24, 4-[4-(3-chloro-5-methoxyphenoxymethyl)pyridin-2-yl]-2-methylbenzamide]",25 to 100 nM
7,"Cc1cc(-c2cc(COc3ccccc3)ccn2)ccc1C(N)=O [Example 25, 4-[4-(phenoxymethyl)pyridin-2-yl]-2-methylbenzamide]",101 to 1000 nM
8,"Cc1cc(-c2cc(COc3ccc(C#N)cc3)ccn2)ccc1C(N)=O [Example 26, 4-[4-(4-cyanophenoxymethyl)pyridin-2-yl]-2-methylbenzamide]",25 to 100 nM
9,"COc1ccc(OCc2ccnc(-c3ccc(C(N)=O)c(C)c3)c2)cc1 [Example 30, 4-[4-(4-methoxyphenoxymethyl)pyridin-2-yl]-2-methylbenzamide]",101 to 1000 nM
10,"Cc1cc(-c2cc(COc3cccc4c3CCC4=O)ccn2)ccc1C(N)=O [Example 31, 4-(4-{[(1-oxo-2,3-dihydro-1H-inden-4-yl)oxy]methyl}pyridin-2-yl)-2-methylbenzamide]",101 to 1000 nM
11,"CCc1ccccc1OCc1ccnc(-c2ccc(C(N)=O)c(C)c2)c1 [Example 32, 4-[4-(2-ethylphenoxymethyl)pyridin-2-yl]-2-methylbenzamide]",101 to 1000 nM
12,"Cc1cc(-c2cc(COc3ccc([N+](=O)[O-])cc3)ccn2)ccc1C(N)=O [Example 33, 4-[4-(4-nitrophenoxymethyl)pyridin-2-yl]-2-methylbenzamide]",< 25 nM
13,"CC(=O)Nc1cccc(OCc2ccnc(-c3ccc(C(N)=O)c(C)c3)c2)c1 [Example 35, 4-[4-(3-acetamidophenoxymethyl)pyridin-2-yl]-2-methylbenzamide]",101 to 1000 nM
14,"Cc1cc(-c2cc(COc3cccc(C)c3C)ccn2)ccc1C(N)=O [Example 41, 4-[4-(2,3-dimethylphenoxymethyl)pyridin-2-yl]-2-methylbenzamide]",101 to 1000 nM
15,"Cc1cc(-c2cc(COc3ccc4ccccc4c3)ccn2)ccc1C(N)=O [Example 42, 4-{4-[(naphthalen-2-yloxy)methyl]pyridin-2-yl}-2-methylbenzamide]",25 to 100 nM
16,"CC(=O)c1cccc(OCc2ccnc(-c3ccc(C(N)=O)c(C)c3)c2)c1 [Example 43, 4-[4-(3-acetylphenoxymethyl)pyridin-2-yl]-2-methylbenzamide]",101 to 1000 nM
17,"Cc1ccc(OCc2ccnc(-c3ccc(C(N)=O)c(C)c3)c2)c(Cl)c1 [Example 44, 4-[4-(2-chloro-4-methylphenoxymethyl)pyridin-2-yl]-2-methylbenzamide]",< 25 nM
18,"Cc1ccccc1OCc1ccnc(-c2ccc(C(N)=O)c(C)c2)c1 [Example 46, 4-[4-(2-methylphenoxymethyl)pyridin-2-yl]-2-methylbenzamide]",101 to 1000 nM
19,"Cc1cc(-c2cc(COc3cccc(Cl)c3F)ccn2)ccc1C(N)=O [Example 50, 4-[4-(3-chloro-2-fluorophenoxymethyl)pyridin-2-yl]-2-methylbenzamide]",25 to 100 nM
20,"COc1cc(Cl)ccc1OCc1ccnc(-c2ccc(C(N)=O)c(C)c2)c1 [Example 51, 4-[4-(4-chloro-2-methoxyphenoxymethyl)pyridin-2-yl]-2-methylbenzamide]",25 to 100 nM
21,"CSc1ccccc1OCc1ccnc(-c2ccc(C(N)=O)c(C)c2)c1 [Example 53, 4-{4-[2-(methylsulfanyl)phenoxymethyl]pyridin-2-yl}-2-methyl benzamide]",25 to 100 nM
22,"CCC(=O)c1ccc(OCc2ccnc(-c3ccc(C(N)=O)c(C)c3)c2)cc1 [Example 59, 4-[4-(4-propanoylphenoxymethyl)pyridin-2-yl]2-methylbenzamide]",101 to 1000 nM

# The remaining lines, values ahead:
row,EC50,Structure (SMILES)
1,101 to 1000 nM,"Cc1cc(OCc2ccnc(-c3ccc(C(N)=O)c(C)c3)c2)ccc1F [Example 27, 4-[4-(4-fluoro-3-methylphenoxymethyl)pyridin-2-yl]-2-methylbenzamide]"
2,101 to 1000 nM,"Cc1cc(OCc2ccnc(-c3ccc(C(N)=O)c(C)c3)c2)ccc1Cl [Example 28, 4-[4-(4-chloro-3-methylphenoxymethyl)pyridin-2-yl]-2-methylbenzamide]"
3,101 to 1000 nM,"Cc1cc(F)ccc1OCc1ccnc(-c2ccc(C(N)=O)c(C)c2)c1 [Example 29, 4-[4-(4-fluoro-2-methylphenoxymethyl)pyridin-2-yl]-2-methylbenzamide]"
4,101 to 1000 nM,"Cc1cc(-c2cc(COc3ccc(Cl)c(F)c3)ccn2)ccc1C(N)=O [Example 34, 4-[4-(4-chloro-3-fluorophenoxymethyl)pyridin-2-yl]-2-methylbenzamide]"
5,101 to 1000 nM,"Cc1ccc(OCc2ccnc(-c3ccc(C(N)=O)c(C)c3)c2)cc1 [Example 36, 4-[4-(4-methylphenoxymethyl)pyridin-2-yl]-2-methylbenzamide]"
6,25 to 100 nM,"CSc1ccc(OCc2ccnc(-c3ccc(C(N)=O)c(C)c3)c2)cc1 [Example 37, 4-{4-[4-(methylsulfanyl)phenoxymethyl]pyridin-2-yl}-2-methyl benzamide]"
7,25 to 100 nM,"Cc1cccc(OCc2ccnc(-c3ccc(C(N)=O)c(C)c3)c2)c1 [Example 38, 4-[4-(3-methylphenoxymethyl)pyridin-2-yl]-2-methyl benzamide]"
8,101 to 1000 nM,"COc1cccc(OCc2ccnc(-c3ccc(C(N)=O)c(C)c3)c2)c1 [Example 39, 4-[4-(3-methoxyphenoxymethyl)pyridin-2-yl]-2-methylbenzamide]"
9,> 1000 nM,"Cc1cc(-c2cc(COc3ccc(Cl)cc3)ccn2)ccc1C(N)=O [Example 40, 4-[4-(4-chlorophenoxymethyl)pyridin-2-yl]-2-methylbenzamide]"
10,101 to 1000 nM,"Cc1cc(-c2cc(COc3ccc(F)cc3Cl)ccn2)ccc1C(N)=O [Example 45, 4-[4-(2-chloro-4-fluorophenoxymethyl)pyridin-2-yl]-2-methylbenzamide]"
11,< 25 nM,"Cc1cc(-c2cc(COc3ccc(F)c(Cl)c3)ccn2)ccc1C(N)=O [Example 47, 4-[4-(3-chloro-4-fluorophenoxymethyl)pyridin-2-yl]-2-methylbenzamide]"
12,< 25 nM,"Cc1cc(-c2cc(COc3ccc(F)c(F)c3)ccn2)ccc1C(N)=O [Example 48, 4-[4-(3,4-difluorophenoxymethyl)pyridin-2-yl]-2-methylbenzamide]"
13,25 to 100 nM,"Cc1cc(-c2cc(COc3ccc(Cl)c(C#N)c3)ccn2)ccc1C(N)=O [Example 49, 4-[4-(4-chloro-3-cyanophenoxymethyl)pyridin-2-yl]-2-methylbenzamide]"
14,25 to 100 nM,"Cc1cc(-c2cc(COc3cccc(F)c3F)ccn2)ccc1C(N)=O [Example 52, 4-[4-(2,3-difluorophenoxymethyl)pyridin-2-yl]-2-methylbenzamide]"
15,< 25 nM,"Cc1cc(-c2cc(COc3cc(F)c(F)c(Cl)c3)ccn2)ccc1C(N)=O [Example 54, 4-[4-(3-chloro-4,5-difluorophenoxymethyl)pyridin-2-yl]-2-methylbenzamide]"
16,< 25 nM,"COc1cc(OCc2ccnc(-c3ccc(C(N)=O)c(C)c3)c2)ccc1C#N [Example 55, 4-[4-(4-cyano-3-methoxyphenoxymethyl)pyridin-2-yl]-2-methylbenzamide]"
17,< 25 nM,"Cc1cc(-c2cc(COc3cc(F)c(Cl)c(F)c3)ccn2)ccc1C(N)=O [Example 56, 4-[4-(4-chloro-3,5-difluorophenoxymethyl)pyridin-2-yl]-2-methylbenzamide]"
18,< 25 nM,"Cc1cc(-c2cc(COc3cc(F)c(F)c(F)c3)ccn2)ccc1C(N)=O [Example 57, 4-[4-(3,4,5-trifluorophenoxymethyl)pyridin-2-yl]-2-methyl benzamide]"
19,25 to 100 nM,"COc1cc(OCc2ccnc(-c3ccc(C(N)=O)c(C)c3)c2)ccc1C(F)(F)F [Example 58, 4-{4-[3-methoxy-4-(trifluoromethyl)phenoxymethyl]pyridin-2-yl}-2-methylbenzamide]"
20,< 25 nM,"CC(=O)c1ccc(OCc2ccnc(-c3ccc(C(N)=O)c(C)c3)c2)cc1F [Example 60, 4-[4-(4-acetyl-3-fluorophenoxymethyl)pyridin-2-yl]-2-methylbenzamide]"
21,< 25 nM,"COc1cc(OCc2ccnc(-c3ccc(C(N)=O)c(C)c3)c2)ccc1F [Example 61, 4-[4-(4-fluoro-3-methoxyphenoxymethyl)pyridin-2-yl]-2-methylbenzamide]"
22,< 25 nM,"COc1ccc(OCc2ccnc(-c3ccc(C(N)=O)c(C)c3)c2)cc1F [Example 62, 4-[4-(3-fluoro-4-methoxyphenoxymethyl)pyridin-2-yl]-2-methylbenzamide]"
